# Laboratory results reported in patent US20240041898A9, “NEUROSTEROIDS AND ENANTIOMERS THEREOF FOR THE PREVENTION AND TREATMENT OF NEURODEGENERATIVE CONDITIONS” (priority 2019, published 2024).
# “And” between values parts separate entries of the source, which are not always exact repeats. Equal values may be shown once.
# Columns and labels:
# [1] = test system: LC3-II; assay: Rat in vivo OHT model, Western blot of LC3-II; conditions: in vivo OHT eyes, 3 weeks after microbead injection, relative units, control = 1.00; for LC3-II expression (FIG. 6B), individual experiments 1-4: single values
# Protocol: (§1) Example 7. Rat in vivo OHT model induced by intracameral injection of microbeads—For induction of ocular hypertension (OHT) in vivo, sterile 6 μm polystyrene microbeads were injected into the anterior chamber of the left eye of each animal using a single-step, sclero-corneal tunnel approach with a 35G nanoneedle (FIG. 4A). […] After stabilization of elevated IOP, animals were randomly divided into 3 groups (non-treated OHT, AlloP injection, and ent-AlloP injection). AlloP and ent-AlloP were administered as a one-time intravitreal injection one week following bead injection. Non-treated OHT animals received sterile vehicle intravitreally. As a further control, vehicle was intravitreally injected 7 days after intracameral administration of 10 μl of PBS. Three weeks after bead injections, IOP was 26.7±3.7 mmHg in non-treated OHT eyes compared to 9.9±0.9 mmHg in control eyes.
# Rat in vivo OHT model—8-week old male Sprague-Dawley rats were deeply anesthetized with an intraperitoneal injection of a mixture of medetomidine hydrochloride (Cat #133-17474, CAS. No 86347-15-1, Wako Pure Chemical Industries Ltd., Osaka, Japan, 0.15 mg/kg), midazolam (Cat #135-13791, CAS. No 58786-99-5, Wako Pure Chemical Industries Ltd., 2 mg/kg), and butorphanol tartrate (Cat #021-19001, CAS. No […], Wako Pure Chemical Industries Ltd., 2.5 mg/kg), and intraocular pressure was increased unilaterally to approximately 35 mmHg, by intracameral injection of polystyrene microbeads using a single-step, sclero-corneal tunnel approach with a 35G-gauge nanoneedle (#LNAN-3505LM, Saito Medical Instruments Inc., Tokyo, Japan) connected to 100 μl WPI Nanofil 100 microsyringe (World Precision Instruments, Inc., Sarasota, FL). Sterile 6 μm polystyrene microbeads in a 1×10^6 microbeads/ml solution (Molecular Probes, Eugene, OR, USA) were concentrated to obtain a 1×10^7 microbeads/ml solution. […] Ocular hypertension was monitored preoperatively, and at 3 days, 1 week, 2 weeks or 3 weeks after the beads were injected. IOP was measured using a laboratory tonometer (TonoLab, Icare, Finland). […]
# [2] = test system: optic nerve axons; assay: Rat in vivo OHT model, density of optic nerve axons; conditions: OHT eyes, intravitreal, 3 weeks after microbead injection; single values
# Protocol: as §1
# Example 9. RGC survival by neurosteroids during IOP elevation—In whole mounted retinas, glaucomatous damage was visible as reduced numbers of cells that were positive for NeuN three weeks after microbead injection in non-treated OHT eyes compared with control eyes (FIG. 4J, 4K). […] In sections of optic nerves stained with 2% toluidine blue, axonal loss was detected 3 weeks after microbead injection in non-treated OHT eyes compared with control eyes (FIG. 4O, 4p). […]
# [3] = test system: nerve fiber layer (NFL) of retina; assay: Ex vivo pressure-loaded retinas, electron microscopy of autophagosomes (AP) and degenerative autophagic vacuoles (DAV); format: cell-based, rat; conditions: 75 mmHg, 1 μM; for Autophagosomes (AP) in the NFL, Total / Degenerative autophagic vacuoles (DAV) in the NFL, Total: Total of 10 areas of 25 μm2; for Autophagosomes (AP)/25 μm2 in the NFL, individual areas 1-10 / Degenerative autophagic vacuoles (DAV)/25 μm2 in the NFL, individual areas 1-10: single values
# Protocol: Rat ex vivo Eyecup Preparation—Rat ex vivo eyecups were prepared from 28-32 day old male Sprague-Dawley rats (Charles River Laboratories International Inc., Wilmington, MA). The anterior half of the enucleated eyes was carefully removed to make eyecup preparations. Eyecups were placed at the bottom of a 100 ml glass beaker filled with aCSF (artificial cerebrospinal fluid) containing (in mM): 124 NaCl, 5 KCl, 2 MgSO4, 2 CaCl2, 1.25 NaH2PO4, 22 NaHCO3, and 10 glucose, and incubated at 30° C. for 24 hours using a closed pressure-loading system (FIG. 1C). pH was maintained at 7.35 to 7.40. In the closed-pressure system, a glass beaker with the eyecup was placed at the bottom of an acrylic pressure chamber (2,000 ml volume). A 95% O2-5% CO2 gas mixture was delivered through disposable plastic tubing with an infusion valve and a control dial on the lid of the pressure chamber and an air filter (Cat #SLGP033RS, Merck Millipore, Billerica, MA). The plastic tubing delivering the gas terminated 1 cm above the bottom of the beaker.
# Acutely prepared eyecups were incubated in gassed aCSF for at least 1 h at 30° C. before pressure loading. In some experiments, AlloP (1 μM), ent-AlloP (1 μM), and 3-MA (10 mM) were dissolved in aCSF at the time of experiment and administered by bath perfusion. Eyecup preparations were treated with these drugs for 1 h at 30° C. before pressure loading. For pressure loading, the 95% O2-5% CO2 gas mixture was infused until the pressure reading given by a manometer reached the appropriate level. The pressure was then locked by adjusting the control dial of the effusion valve, and monitored continuously for 24 h at 30° C.
# Electron Microscopy—Retinal specimens were trimmed to a smaller size, and ultrathin sections (75 nm) were cut with a diamond knife and suspended over formvar-coated slot grids (1×2 mm opening). The sections were stained with uranyl acetate and lead citrate and viewed in a transmission electron microscope (H-7650, Hitachi High-Technologies Corp., Tokyo, Japan). Numbers of AP and DAV inside NFLs and axons were determined as the sum in 10 different areas of 25 μm^2 each from each sample. The analysis was performed in three eyes per experimental condition.
Compound,"LC3-II expression (FIG. 6B), Average ([1]; Average of 4)","LC3-II expression (FIG. 6B), individual experiments 1-4 [1]","Density of axons in ONs, individual 1-5 [2]","RGC axon swelling, electron microscopy [3]","Autophagosomes (AP) in the NFL, Total [3]","Degenerative autophagic vacuoles (DAV) in the NFL, Total [3]","Autophagosomes (AP)/25 μm2 in the NFL, individual areas 1-10 [3]","Degenerative autophagic vacuoles (DAV)/25 μm2 in the NFL, individual areas 1-10 [3]"
"CC(=O)[C@H]1CC[C@H]2[C@@H]3CC[C@H]4C[C@H](O)CC[C@]4(C)[C@H]3CC[C@]12C [AlloP, allopregnanolone]",3.00,2.73 and 3.32 and 2.82 and 3.11,33 Axons × 10000/square mm (2×) and 27 Axons × 10000/square mm and 32 Axons × 10000/square mm and 29 Axons × 10000/square mm,protected RGC axons from high pressure,16,8,0 /25 μm2 (2×) and 2 /25 μm2 (6×) and 3 /25 μm2 and 1 /25 μm2,0 /25 μm2 (4×) and 1 /25 μm2 (5×) and 3 /25 μm2
"CC(=O)[C@@H]1CC[C@@H]2[C@H]3CC[C@@H]4C[C@@H](O)CC[C@@]4(C)[C@@H]3CC[C@]21C [ent-AlloP, ent-allopregnanolone]",,4.96 and 4.97 and 4.27 and 5.04,31 Axons × 10000/square mm and 33 Axons × 10000/square mm and 32 Axons × 10000/square mm and 29 Axons × 10000/square mm and 27 Axons × 10000/square mm,protected RGC axons from high pressure,1,22,0 /25 μm2 (9×) and 1 /25 μm2,1 /25 μm2 (3×) and 2 /25 μm2 (4×) and 4 /25 μm2 (2×) and 3 /25 μm2
